The test system of assay [1] is dengue virus type 2. As to the kind of experiment: Antiviral activity against Dengue virus 2 S221 infected in DENV antibody dependent enhancement AG129 mouse model assessed as reduction in TNF-lapha level at 750 mg/kg, po administered via gavage as two doses at 36 hrs and 52 hrs post infection measured at 52 hrs post-infection by electrochemiluminescence based method. In kind it is functional, organism-based.

Assay [2] has as its system Influenza A virus. Briefly: Antiviral activity against Influenza A virus (A/PA/10/2010 (H3N2)) infected in BALB/c mouse assessed as increase in animal survival rate at >250 mg/kg, po administered via gavage as single dose at 8 hrs post infection. In kind it is functional, organism-based.
The test system of assay [3] is Mus musculus. Briefly: In vivo inhibition of ERGlu2 in BALB/c mouse assessed as increase in mono-glucosylated FOS level in spleen at 100 mg/kg, po administered via gavage starting at 8 hrs post-infection and continuing tid for 5 days and measured at 8 hrs post-final dose by NP-HPLC analysis. In kind it is functional, organism-based.
Assay [4] relates to dengue virus type 2. As to the kind of experiment: Antiviral activity against Dengue virus 2 S221 infected in DENV antibody dependent enhancement AG129 mouse model assessed as animal survival at 750 mg/kg, po administered via gavage as two doses at 16 and 32 hrs post infection (reference value: 4%). In kind it is functional.
In assay [5] the test system is dengue virus type 2. Briefly: Antiviral activity against Dengue virus 2 S221 infected in DENV antibody dependent enhancement AG129 mouse model assessed as reduction in viremia at 750 mg/kg, po administered via gavage as two doses at 36 hrs and 52 hrs post infection by qRT-PCR analysis. It counts as functional, organism-based.
Assay [6] deals with Mus musculus. As to the kind of experiment: In vivo inhibition of ERGlu2 in BALB/c mouse assessed as increase in mono-glucosylated FOS level in lung at 20 mg/kg, po administered via gavage starting at 8 hrs post-infection and continuing tid for 5 days and measured at 8 hrs post-final dose by NP-HPLC analysis. In kind it is functional, organism-based.
Assay [7] has as its system dengue virus type 2. As to the kind of experiment: Antiviral activity against Dengue virus 2 S221 infected in DENV antibody dependent enhancement AG129 mouse model assessed as reduction in IL10 level at 750 mg/kg, po administered via gavage as single dose at 36 hrs post infection measured at 60 hrs post-infection by electrochemiluminescence based method. In kind it is functional, organism-based.

In assay [8] the test system is dengue virus type 2. As to the kind of experiment: Antiviral activity against Dengue virus 2 S221 infected in DENV antibody dependent enhancement AG129 mouse model assessed as reduction in IL-10 level at 750 mg/kg, po administered via gavage as single dose at 36 hrs post infection measured at 72 hrs post-infection by electrochemiluminescence based method. It counts as functional, organism-based.

The subject of assay [9] is dengue virus type 2. Briefly: Antiviral activity against Dengue virus 2 S221 infected in DENV antibody dependent enhancement AG129 mouse model assessed as reduction in IL-12/IL-23p40 level at 750 mg/kg, po administered via gavage as single dose at 36 hrs post infection measured at 60 hrs post-infection by electrochemiluminescence based method. In kind it is functional, organism-based.

The subject of assay [10] is Influenza A virus. As to the kind of experiment: Antiviral activity against Influenza A virus (A/Texas/36/1991(H1N1)) infected in BALB/c mouse assessed as median death time at 500 mg/kg, po administered via gavage as three dosed at 8, 32 and 56 hrs post infection (reference value: 8 days). In kind it is functional.
For assay [11], the system named is Influenza A virus. Briefly: Antiviral activity against Influenza A virus (A/Texas/36/1991(H1N1)) infected in BALB/c mouse assessed as animal survival at 500 mg/kg, po administered via gavage as single dose at 16 hrs post infection (reference value: 0%). In kind it is functional.
Assay [12] has as its system dengue virus type 2. Briefly: Antiviral activity against Dengue virus 2 S221 infected in DENV antibody dependent enhancement AG129 mouse model assessed as reduction in KC-GRO level at 750 mg/kg, po administered via gavage as single dose at 36 hrs post infection measured at 72 hrs post-infection by electrochemiluminescence based method. In kind it is functional, organism-based.

Assay [13] has as its system dengue virus type 2. Briefly: Antiviral activity against Dengue virus 2 S221 infected in DENV antibody dependent enhancement AG129 mouse model assessed as reduction in TNF-alpha level at 750 mg/kg, po administered via gavage as two doses at 36 hrs and 52 hrs post infection measured at 72 hrs post-infection by electrochemiluminescence based method. It counts as functional, organism-based.

Assay [14] concerns Influenza A virus. As to the kind of experiment: Antiviral activity against Influenza A virus (A/Texas/36/1991(H1N1)) infected in BALB/c mouse assessed as animal survival at 750 mg/kg, po administered via gavage as single dose at 8 hrs post infection (reference value: 0%). In kind it is functional.
In assay [15] the test system is Influenza A virus. Briefly: Antiviral activity against Influenza A virus (A/Texas/36/1991(H1N1)) infected in BALB/c mouse assessed as animal survival at 250 mg/kg, po administered via gavage as two doses at 8 and 32 hrs post infection (reference value: 0%). It counts as functional.
In assay [16] the test system is Influenza A virus. As to the kind of experiment: Antiviral activity against Influenza A virus (A/Texas/36/1991(H1N1)) infected in BALB/c mouse assessed as animal survival at 750 mg/kg, po administered via gavage as single dose at 16 hrs post infection (reference value: 0%). It counts as functional.
Assay [17] deals with dengue virus type 2. As to the kind of experiment: Antiviral activity against Dengue virus 2 S221 infected in DENV antibody dependent enhancement AG129 mouse model assessed as reduction in IFN-gamma level at 750 mg/kg, po administered via gavage as two doses at 36 hrs and 52 hrs post infection measured at 72 hrs post-infection by electrochemiluminescence based method. In kind it is functional, organism-based.

Assay [18] relates to dengue virus type 2. Briefly: Antiviral activity against Dengue virus 2 S221 infected in DENV antibody dependent enhancement AG129 mouse model assessed as reduction in IL-12/IL-23p40 level at 750 mg/kg, po administered via gavage as two doses at 36 hrs and 52 hrs post infection measured at 72 hrs post-infection by electrochemiluminescence based method. It counts as functional, organism-based.

The subject of assay [19] is dengue virus type 2. As to the kind of experiment: Antiviral activity against Dengue virus 2 S221 infected in DENV antibody dependent enhancement AG129 mouse model assessed as animal survival at 375 mg/kg, po administered via gavage as two doses at 16 and 32 hrs post infection (reference value: 4%). It counts as functional.
The subject of assay [20] is Mus musculus. As to the kind of experiment: In vivo inhibition of ERGlu2 in BALB/c mouse assessed as increase in di-glucosylated FOS level in serum at 100 mg/kg, po administered via gavage starting at 8 hrs post-infection and continuing tid for 5 days and measured at 8 hrs post-final dose by NP-HPLC analysis. In kind it is functional, organism-based.
In assay [21] the test system is Mus musculus. As to the kind of experiment: In vivo inhibition of ERGlu2 in BALB/c mouse assessed as increase in mono-glucosylated FOS level in spleen at 20 mg/kg, po administered via gavage starting at 8 hrs post-infection and continuing tid for 5 days and measured at 8 hrs post-final dose by NP-HPLC analysis. In kind it is functional, organism-based.
Assay [22] has as its system Influenza A virus. As to the kind of experiment: Antiviral activity against Influenza A virus (A/Texas/36/1991(H1N1)) infected in BALB/c mouse assessed as animal survival at 500 mg/kg, po administered via gavage as three doses at 8, 32 and 56 hrs post infection (reference value: 0%). It counts as functional.
The test system of assay [23] is Influenza A virus. As to the kind of experiment: Antiviral activity against Influenza A virus (A/Texas/36/1991(H1N1)) infected in BALB/c mouse assessed as animal survival at 500 mg/kg, po administered via gavage as single dose at 24 hrs post infection (reference value: 0%). It counts as functional.
Assay [24] relates to Mus musculus. As to the kind of experiment: In vivo inhibition of ERGlu1 in BALB/c mouse assessed as increase in tri-glucosylated FOS level in spleen at 750 mg/kg, po administered via gavage as single dose and measured after 16 hrs by NP-HPLC analysis. It counts as functional, organism-based.

The results in this text go back to ChEMBL document CHEMBL4402592, “Targeting Endoplasmic Reticulum α-Glucosidase I with a Single-Dose Iminosugar Treatment Protects against Lethal Influenza and Dengue Virus Infections” (J Med Chem, 2020).

The structures appear in SMILES notation. Active and inactive are the calls of the source. The calls are words filed in the database; no cut-off is given here.

As to `COCCCCCCCCCN1C[C@H](O)[C@@H](O)[C@H](O)[C@H]1CO.Cl`, the outcome in [1], in assay [2], in [5], in assay [7], in assay [8] and in [9] was Active. Also, the outcome in [12], in assay [13], in [17] and in assay [18] was Active. For the same molecule, the inhibition entry in assay [3], in [6], in assay [20], in assay [21] and in [24] was “Active” each time. Further, the survival at 750 mg/kg in assay [4] amounted to 100%; in assay [14], 80%; in assay [16] it was 70%. Also, the Time in assay [10] was greater than 14 days. Moreover, the values for the survival at 500 mg/kg in assay [11], in assay [22] and in assay [23] were 40%, 100% and 30%, respectively. Moreover, in assay [15], the survival at 250 mg/kg is 60%. Also, in [19], the survival at 375 mg/kg was found to be 100%.
